Where “and” joins values, the source holds several entries; their conditions need not be identical. Equal entries are not always repeated. Calls of active or inactive are those of the source. The rule behind the calls is not given here.

From PubChem BioAssay AID652289 (Broad Institute, 2013) come the findings set out here.

Test system in the first experiment: not listed separately
In words: light production inducers, absence of autoinducers, V. cholerae bh1651 strain, confirmatory (AID 652289). The settings on record: V. cholerae BH1651 luxOD47E, luciferase light induction, 6 h; at 35 µM (top of the series).
Take `O=C(CC1CCCCC1)Nc1nnc(-c2ccc3c(c2)CCCC3)o1`: the light induction was 0.061% (inactive).

The experiment is the same for the next values; noted with them: V. cholerae BH1651 luxOD47E, luciferase light induction, 6 h; at 50 µM (top of the series).
Take `CCCCCCCCCC(=O)C(O)CC` (stereo unspecified): the light induction is 0.038% (inactive).

The same experiment, now with this note: V. cholerae BH1651 luxOD47E, luciferase light induction, 6 h; at 80 µM (top of the series).
In the case of `O=C(Nc1nnc(-c2ccc(Cl)cc2)o1)C1CCCCC1`, the light induction was -0.026% (inactive).

Turning to `O=C(Nc1nnc(-c2ccc3c(c2)CCCC3)o1)C1CCC1`, the light induction was -0.005% (inactive).

Consider `CCC(C)(C)C(=O)Nc1nnc(-c2ccc3c(c2)OCCO3)o1`, for which the light induction was -0.006% (inactive).

`O=C(Nc1nnc(-c2cccc(Cl)c2)o1)C1CCCCC1`: the light induction was 0.065% (inactive).

In the case of `Cc1ccc2cc3c(NC(=O)c4ccoc4)nn(C)c3nc2c1`, the light induction is 2.86% (inactive).

`O=C(CC1CCCCC1)Nc1nnc(-c2cccnc2)o1`: the light induction is -0.016% (inactive).

Still in this experiment, the particulars now being: V. cholerae BH1651 luxOD47E, luciferase light induction, 6 h; at 100 µM (top of the series).
Turning to `O=C(Nc1nnc(-c2ccc3c(c2)OCCO3)o1)C(F)(F)c1ccccc1`, the light induction was -0.004% (inactive).

Take `c1ccc(CNc2nnc(-c3ccc4c(c3)OCCO4)o2)cc1`: the light induction is -0.004% (inactive).

On to `COc1ccc(-c2nnc(NC(C)=O)o2)cc1`, for which the light induction was 0.045% (inactive).

With `Cc1ccc2cc3c(NC(=O)Cc4ccco4)nn(C)c3nc2c1`, the light induction was 1.12% (inactive).

In the case of `CCn1nnnc1NCc1ccc(C(C)C)cc1`, the light induction is -0.004% (inactive).

Regarding `COc1cccc(-c2nnc(NC(=O)C3CCCCC3)o2)c1`, the light induction is -0.005% (inactive).

For the compound `Cn1nc(NC(=O)c2ccco2)c2cc3ccc(C(C)(C)C)cc3nc21`, the light induction was 0% (inactive).

On to `O=C(Cc1ccc(-c2ccccc2)cc1)NC1CCC1`, for which the light induction is -0.023% (inactive).

With `O=C(Nc1nnc(C2CCCC2)o1)C1CCCCC1`, the light induction was -0.015% (inactive).

For the compound `CN1CCC(C(=O)Nc2nnc(-c3ccc4c(c3)OCCO4)o2)CC1`, the light induction was 0.052% (inactive).

Take `Cc1ccc2cc3c(NC(=O)c4cc5ccccc5o4)nn(C)c3nc2c1`: the light induction is -0.007% (inactive).

On to `O=C(Nc1nnc(-c2ccc3c(c2)OCCO3)o1)C1CC1`, for which the light induction was 0.004% (inactive).

Take `O=C(Nc1nnc(-c2ccc3c(c2)OCCO3)o1)C1CCC1`: the light induction was 0.013% (inactive).

Consider `Cc1ccc2cc3c(NC(=O)c4ccc(C)o4)nn(C)c3nc2c1`, for which the light induction was -0.015% (inactive).

Consider `O=S(=O)(Nc1nnc(-c2ccc3c(c2)OCCO3)o1)c1ccc(Cl)cc1`, for which the light induction was -0.005% (inactive).

In the case of `O=C(Nc1nnc(-c2ccncc2)o1)C1CCC1`, the light induction is 0.055% (inactive).

As to `CCCCCCCCCC(=O)[C@H](O)CC` (racemic), the light induction is 0.014% (inactive).

With `CC(C)(C)OC(=O)N1CCC(C(=O)Nc2nnc(-c3ccc4c(c3)OCCO4)o2)CC1`, the light induction is 0.028% (inactive).

`COc1ccc(S(=O)(=O)Nc2nnc(-c3ccc4c(c3)OCCO4)o2)cc1`: the light induction was 0.005% (inactive).

With `CN(C)/C=N/c1nnc(-c2ccc3c(c2)OCCO3)o1`, the light induction is 0.039% (inactive).

Turning to `Cc1ccc2cc3c(NC(=O)c4ccccn4)nn(C)c3nc2c1`, the light induction is 0.001% (inactive).

For the compound `CC(C)c1ccc2cc3c(NC(=O)c4ccco4)nn(C)c3nc2c1`, the light induction was 0.507% (inactive).

With `Cn1ccc(NC(=O)c2ccco2)n1`, the light induction is 0.053% (inactive).

Consider `C(=N\c1nnc(-c2ccc3c(c2)OCCO3)o1)/c1ccccc1`, for which the light induction was 0.005% (inactive).

Take `O=C(Nc1nnc(-c2ccccc2Cl)o1)C1CCCCC1`: the light induction is -0.01% (inactive).

Consider `O=C(Nc1nnc(-c2cccnc2)o1)C1CCC1`, for which the light induction is 0.001% (inactive).

The subject of a further experiment is V. cholerae BH1651 luxOD47E, luciferase light induction, 6 h. Described as above.
Conditions: not given
`Cn1nc(NC(=O)c2ccco2)c2cc3ccccc3nc21`: the AC40 is 3.58 µM.

Consider `Cc1cc(F)cc2nc3c(cc12)c(NC(=O)c1ccco1)nn3C`, for which the AC40 was 41.3 µM.

As to `Cc1cc2cc3c(NC(=O)c4ccco4)nn(C)c3nc2cc1C`, the AC40 is 63.3 µM.

Turning to `Cc1cc(F)c2cc3c(NC(=O)c4ccco4)nn(C)c3nc2c1`, the AC40 was 33.5 µM.

In the case of `Cc1ccc2cc3c(NC(=O)C4CCCC4)nn(C)c3nc2c1`, the AC40 is 40.6 µM.

With `COc1ccc2cc3c(NC(=O)c4ccco4)nn(C)c3nc2c1`, the AC40 was 2.73 µM.

Take `COc1ccc(-c2nnc(NC(=O)C3CCCCC3)o2)cc1`: the AC40 was > 100 µM (inactive).

As to `O=C(Nc1nnc(-c2cccnc2)o1)C1CCCCC1`, the AC40 was 61.3 µM.

Consider `CCc1ccc2cc3c(NC(=O)c4ccco4)nn(C)c3nc2c1`, for which the AC40 is 32.9 µM.

`O=C(Nc1nnc(-c2ccc3c(c2)OCCO3)o1)C1CCCCCC1`: the AC40 was 6.99 µM.

On to `O=C(Nc1nnc(-c2ccc3c(c2)OCCO3)o1)C1CCCCC1`, for which the AC40 is 5.31 µM and 2.57 µM.

For `Cc1cc2nc3c(cc2cc1F)c(NC(=O)c1ccco1)nn3C`, the AC40 is 68.7 µM.

For the compound `Cc1ccc2cc3c(NC(=O)c4cccs4)nn(C)c3nc2c1`, the AC40 is 70.8 µM.

Regarding `Cn1nc(NC(=O)c2ccco2)c2cccnc21`, the AC40 is 58.4 µM.

For `COc1ccccc1-c1nnc(NC(=O)C2CCCCC2)o1`, the AC40 was > 100 µM (inactive).

In the case of `Cn1nc(NC(=O)c2ccco2)c2ccccc21`, the AC40 is 89.4 µM.

As to `Cc1ccc2cc3c(NC(=O)c4ccco4)nn(C)c3nc2c1`, the AC40 was 5.26 µM and 15.3 µM.
